Tests used:
Test in all cases: biochemical
Set-up in all cases: Thermo Fisher SelectScreen kinase panel: Z'-LYTE and Adapta activity, LanthaScreen binding
[1] = molecular target: T1, ASK1 (Homo sapiens, UniProt Q99683)
T1 construct: gene MAP3K5
Protocol: (§1) 5 88 GNE684 was tested in Thermo Fisher Scientific SelectScreen assay (Madison, WI) 89 against 221 representative kinases at a concentration of 10 µM, which is 476-fold greater than the Ki app 90 for GNE684 against human RIP1 in the RIP1 enzyme 91 assay. The kinase assays were carried out using Z'-LYTE and Adapta activity and 92 LanthaScreen binding assays (Thermo Fisher Scientific, Madison WI) following 93 protocols developed and performed by Thermo Fisher Scientific 94 (https://www.thermofisher.com/us/en/home/products-and-services/services/custom-95 services/screening-and-profiling-services/selectscreen-profiling-service/selectscreen-96 kinase-profiling-service.html). 97 GNE684 was also tested against 468 kinases in the KINOMEscan scanMAX kinase 98 binding assay panel at a concentration of 10 µM following protocols developed and 99 performed by DiscoverX (http://www.discoverx.com/kinase_profiling).

[2] = molecular target: BLK (Homo sapiens, UniProt P51451)
Protocol: as §1

[3] = molecular target: CLK1 (Homo sapiens, UniProt P49759)
Protocol: as §1

[4] = molecular target: CLK2 (Homo sapiens, UniProt P49760)
Sequence of CLK2 (P49760 whole entry): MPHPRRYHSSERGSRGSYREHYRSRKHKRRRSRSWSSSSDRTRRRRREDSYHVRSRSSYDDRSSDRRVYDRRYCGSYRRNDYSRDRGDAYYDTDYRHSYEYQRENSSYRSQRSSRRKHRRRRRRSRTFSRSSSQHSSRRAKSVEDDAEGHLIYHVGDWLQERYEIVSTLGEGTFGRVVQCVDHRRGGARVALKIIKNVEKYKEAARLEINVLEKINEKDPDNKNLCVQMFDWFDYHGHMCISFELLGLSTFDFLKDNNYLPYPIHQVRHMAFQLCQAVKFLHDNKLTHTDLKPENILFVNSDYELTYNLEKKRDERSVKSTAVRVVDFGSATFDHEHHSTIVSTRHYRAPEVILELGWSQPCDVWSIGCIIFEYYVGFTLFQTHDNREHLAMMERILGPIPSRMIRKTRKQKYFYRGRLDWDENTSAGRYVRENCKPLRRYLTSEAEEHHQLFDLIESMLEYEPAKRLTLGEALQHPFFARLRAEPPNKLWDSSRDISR
Protocol: as §1

[5] = molecular target: EPHA7 (Homo sapiens, UniProt Q15375)
Protocol: as §1

[6] = molecular target: EPHA8 (Homo sapiens, UniProt P29322)
Protocol: as §1

[7] = molecular target: ERBB4 (Homo sapiens, UniProt Q15303)
Protocol: as §1

[8] = molecular target: T2, ERK2 (Homo sapiens, UniProt P28482)
T2 construct: gene MAPK1
T2 sequence (P28482 whole entry): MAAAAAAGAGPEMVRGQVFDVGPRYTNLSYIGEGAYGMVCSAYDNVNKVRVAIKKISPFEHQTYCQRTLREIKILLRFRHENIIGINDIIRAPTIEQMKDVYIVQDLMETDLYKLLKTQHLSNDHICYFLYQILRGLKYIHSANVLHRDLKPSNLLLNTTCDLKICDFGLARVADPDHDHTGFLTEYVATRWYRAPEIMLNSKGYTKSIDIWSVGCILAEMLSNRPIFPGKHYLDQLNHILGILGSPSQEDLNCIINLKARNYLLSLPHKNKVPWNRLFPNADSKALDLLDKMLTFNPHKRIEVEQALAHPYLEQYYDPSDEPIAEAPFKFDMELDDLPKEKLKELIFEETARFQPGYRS
Protocol: as §1

[9] = molecular target: HIPK2 (Homo sapiens, UniProt Q9H2X6)
Protocol: as §1

[10] = molecular target: INSR (Homo sapiens, UniProt P06213)
Protocol: as §1

[11] = molecular target: IRAK4 (Homo sapiens, UniProt Q9NWZ3)
Protocol: as §1

[12] = molecular target: ITK (Homo sapiens, UniProt Q08881)
Protocol: as §1

[13] = molecular target: KDR (Homo sapiens, UniProt P35968)
Sequence of KDR (P35968 whole entry): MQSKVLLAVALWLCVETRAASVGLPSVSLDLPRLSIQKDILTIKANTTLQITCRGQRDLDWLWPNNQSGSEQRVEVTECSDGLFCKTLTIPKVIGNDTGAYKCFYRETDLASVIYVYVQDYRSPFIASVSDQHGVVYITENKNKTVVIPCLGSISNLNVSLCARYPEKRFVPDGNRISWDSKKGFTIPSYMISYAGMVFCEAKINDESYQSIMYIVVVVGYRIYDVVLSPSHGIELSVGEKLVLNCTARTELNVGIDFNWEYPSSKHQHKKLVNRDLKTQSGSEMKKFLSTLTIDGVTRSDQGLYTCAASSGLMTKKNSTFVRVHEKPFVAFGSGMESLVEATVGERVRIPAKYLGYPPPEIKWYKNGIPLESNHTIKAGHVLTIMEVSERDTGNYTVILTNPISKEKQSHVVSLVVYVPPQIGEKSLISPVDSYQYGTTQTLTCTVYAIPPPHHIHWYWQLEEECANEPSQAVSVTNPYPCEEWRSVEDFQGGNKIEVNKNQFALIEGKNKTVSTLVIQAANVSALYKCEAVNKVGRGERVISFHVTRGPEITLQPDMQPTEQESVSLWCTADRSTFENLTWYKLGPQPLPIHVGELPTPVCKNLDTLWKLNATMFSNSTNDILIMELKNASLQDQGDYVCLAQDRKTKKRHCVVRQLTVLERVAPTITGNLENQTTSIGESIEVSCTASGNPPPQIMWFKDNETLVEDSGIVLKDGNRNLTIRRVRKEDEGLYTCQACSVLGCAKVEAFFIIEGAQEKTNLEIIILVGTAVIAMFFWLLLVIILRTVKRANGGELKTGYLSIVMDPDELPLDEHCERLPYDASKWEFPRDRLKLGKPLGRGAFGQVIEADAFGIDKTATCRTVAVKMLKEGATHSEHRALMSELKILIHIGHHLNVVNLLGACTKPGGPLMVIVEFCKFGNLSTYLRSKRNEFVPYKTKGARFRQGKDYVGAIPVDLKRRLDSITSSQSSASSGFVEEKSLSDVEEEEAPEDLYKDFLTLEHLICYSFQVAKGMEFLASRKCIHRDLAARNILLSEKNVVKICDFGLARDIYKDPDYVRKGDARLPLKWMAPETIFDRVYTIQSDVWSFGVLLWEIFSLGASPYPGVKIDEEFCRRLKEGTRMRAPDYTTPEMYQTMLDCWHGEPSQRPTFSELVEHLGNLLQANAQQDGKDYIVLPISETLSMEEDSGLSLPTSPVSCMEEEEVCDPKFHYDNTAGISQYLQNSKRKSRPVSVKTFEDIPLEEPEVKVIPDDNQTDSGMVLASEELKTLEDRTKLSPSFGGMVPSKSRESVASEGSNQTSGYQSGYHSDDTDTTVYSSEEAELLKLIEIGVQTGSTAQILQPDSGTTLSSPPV
Protocol: as §1

[14] = molecular target: T3, KHS1 (Homo sapiens, UniProt Q9Y4K4)
T3 construct: gene MAP4K5
Protocol: as §1

[15] = molecular target: KIT (Homo sapiens, UniProt P10721)
Protocol: as §1

[16] = molecular target: LYN (Homo sapiens, UniProt P07948)
Sequence of LYN (P07948 whole entry): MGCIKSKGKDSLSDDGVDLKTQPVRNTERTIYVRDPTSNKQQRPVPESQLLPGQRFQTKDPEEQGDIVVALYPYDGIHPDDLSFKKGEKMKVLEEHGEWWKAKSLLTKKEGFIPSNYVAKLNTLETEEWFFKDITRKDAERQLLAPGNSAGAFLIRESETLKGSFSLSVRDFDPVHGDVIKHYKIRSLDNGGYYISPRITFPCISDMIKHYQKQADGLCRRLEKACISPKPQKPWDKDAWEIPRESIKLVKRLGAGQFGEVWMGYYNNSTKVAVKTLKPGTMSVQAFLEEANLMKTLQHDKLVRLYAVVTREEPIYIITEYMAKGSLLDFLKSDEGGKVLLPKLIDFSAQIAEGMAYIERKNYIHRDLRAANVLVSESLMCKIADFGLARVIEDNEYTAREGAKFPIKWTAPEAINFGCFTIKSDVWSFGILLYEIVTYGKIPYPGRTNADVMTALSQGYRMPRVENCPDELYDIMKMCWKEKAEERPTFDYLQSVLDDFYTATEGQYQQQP
Protocol: as §1

[17] = molecular target: MAPKAPK2 (Homo sapiens, UniProt P49137)
Protocol: as §1

[18] = molecular target: Mink1 (Homo sapiens, UniProt Q8N4C8)
Sequence of Mink1 (Q8N4C8 whole entry): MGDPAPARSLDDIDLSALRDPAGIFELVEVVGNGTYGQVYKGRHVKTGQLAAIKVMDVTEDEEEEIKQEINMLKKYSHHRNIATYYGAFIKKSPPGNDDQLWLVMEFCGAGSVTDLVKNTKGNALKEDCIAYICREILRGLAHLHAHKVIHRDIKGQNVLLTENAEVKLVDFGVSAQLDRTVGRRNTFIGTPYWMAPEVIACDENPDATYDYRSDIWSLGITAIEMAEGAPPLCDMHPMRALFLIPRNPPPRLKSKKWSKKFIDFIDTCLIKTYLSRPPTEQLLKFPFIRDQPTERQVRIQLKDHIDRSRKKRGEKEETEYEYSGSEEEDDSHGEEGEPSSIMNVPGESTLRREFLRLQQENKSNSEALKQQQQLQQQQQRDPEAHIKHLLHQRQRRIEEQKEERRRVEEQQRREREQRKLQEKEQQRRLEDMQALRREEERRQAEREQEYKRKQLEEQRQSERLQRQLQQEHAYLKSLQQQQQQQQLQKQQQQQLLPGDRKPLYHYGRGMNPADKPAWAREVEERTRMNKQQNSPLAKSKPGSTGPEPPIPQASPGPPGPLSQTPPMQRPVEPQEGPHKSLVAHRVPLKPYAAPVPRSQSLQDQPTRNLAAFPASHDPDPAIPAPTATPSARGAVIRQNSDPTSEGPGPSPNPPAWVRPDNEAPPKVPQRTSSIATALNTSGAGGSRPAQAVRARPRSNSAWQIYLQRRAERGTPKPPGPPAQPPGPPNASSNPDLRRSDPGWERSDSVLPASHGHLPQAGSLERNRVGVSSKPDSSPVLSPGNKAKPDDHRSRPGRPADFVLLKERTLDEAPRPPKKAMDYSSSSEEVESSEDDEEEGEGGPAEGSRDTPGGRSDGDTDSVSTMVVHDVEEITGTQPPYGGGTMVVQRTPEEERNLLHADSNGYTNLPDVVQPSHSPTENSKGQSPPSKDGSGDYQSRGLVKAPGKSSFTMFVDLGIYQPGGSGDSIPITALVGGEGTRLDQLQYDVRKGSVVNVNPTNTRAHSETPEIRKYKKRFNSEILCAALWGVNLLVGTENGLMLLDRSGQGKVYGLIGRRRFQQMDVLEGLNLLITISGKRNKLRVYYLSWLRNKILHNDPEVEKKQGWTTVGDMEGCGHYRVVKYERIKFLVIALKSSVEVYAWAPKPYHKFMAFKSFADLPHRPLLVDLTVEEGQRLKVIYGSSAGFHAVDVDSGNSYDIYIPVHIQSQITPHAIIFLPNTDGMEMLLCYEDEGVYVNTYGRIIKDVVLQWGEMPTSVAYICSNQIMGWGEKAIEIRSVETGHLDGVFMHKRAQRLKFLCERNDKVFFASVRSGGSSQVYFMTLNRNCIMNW
Protocol: as §1

[19] = molecular target: RIPK3 (Homo sapiens, UniProt Q9Y572)
Sequence of RIPK3 (Q9Y572 whole entry): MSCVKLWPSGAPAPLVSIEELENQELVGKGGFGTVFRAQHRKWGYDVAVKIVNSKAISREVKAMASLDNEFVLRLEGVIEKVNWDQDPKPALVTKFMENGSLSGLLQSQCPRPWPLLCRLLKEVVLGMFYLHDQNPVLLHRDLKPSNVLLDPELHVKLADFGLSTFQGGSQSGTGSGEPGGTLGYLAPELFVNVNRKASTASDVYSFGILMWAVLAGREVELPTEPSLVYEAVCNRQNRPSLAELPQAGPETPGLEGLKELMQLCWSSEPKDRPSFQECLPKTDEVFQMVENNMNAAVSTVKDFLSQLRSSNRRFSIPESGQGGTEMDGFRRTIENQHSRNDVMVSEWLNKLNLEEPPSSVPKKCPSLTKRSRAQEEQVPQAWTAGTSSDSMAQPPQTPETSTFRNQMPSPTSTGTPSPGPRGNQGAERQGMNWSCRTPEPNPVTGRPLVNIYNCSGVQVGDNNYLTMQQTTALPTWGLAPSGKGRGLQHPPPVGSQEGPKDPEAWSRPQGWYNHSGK
Protocol: as §1

[20] = molecular target: SRC (Homo sapiens, UniProt P12931)
Protocol: as §1

[21] = molecular target: T4, ZAK (Homo sapiens, UniProt Q9NYL2)
T4 construct: gene MAP3K20
Protocol: as §1

[22] = molecular target: T5, ZIPK (Homo sapiens, UniProt O43293)
T5 construct: gene DAPK3
T5 sequence (O43293 whole entry): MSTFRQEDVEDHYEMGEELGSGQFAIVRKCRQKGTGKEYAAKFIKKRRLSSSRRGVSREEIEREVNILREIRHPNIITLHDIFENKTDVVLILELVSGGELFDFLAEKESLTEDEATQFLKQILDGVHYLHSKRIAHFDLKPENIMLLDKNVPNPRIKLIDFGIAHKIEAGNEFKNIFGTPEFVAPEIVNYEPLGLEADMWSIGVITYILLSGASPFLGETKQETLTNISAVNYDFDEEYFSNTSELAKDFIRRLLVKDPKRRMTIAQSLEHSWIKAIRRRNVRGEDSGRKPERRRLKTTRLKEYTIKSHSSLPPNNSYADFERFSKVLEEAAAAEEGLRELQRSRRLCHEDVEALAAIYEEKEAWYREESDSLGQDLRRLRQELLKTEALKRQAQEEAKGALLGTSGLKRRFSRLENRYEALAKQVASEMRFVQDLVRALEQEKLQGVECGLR
Protocol: as §1

[23] = molecular target: T6, eEF-2K (Homo sapiens, UniProt O00418)
T6 construct: gene EEF2K
Protocol: as §1

## COc1cc2c(cn1)N(C)C(=O)[C@@H](NC(=O)c1nc3n(n1)[C@H](c1ccccc1)CC3)CC2 [GNE684, (S)-N-((S)-7-methoxy-1-methyl-2-oxo-2,3,4,5-tetrahydro-1H-pyrido[3,4-b]azepin-3-yl)-5-phenyl-6,7-dihydro-5H-pyrrolo[1,2-b][1,2,4]triazole-2-carboxamide]
[1]
  inhibition at 10 µM: 4%
[2]
  inhibition at 10 µM: 6.5%
[3]
  inhibition at 10 µM: -0.5%
[4]
  inhibition at 10 µM: 2.5%
[5]
  inhibition at 10 µM: -4%
[6]
  inhibition at 10 µM: 5.5%
[7]
  inhibition at 10 µM: 4%
[8]
  inhibition at 10 µM: 1%
[9]
  inhibition at 10 µM: -1.5%
[10]
  inhibition at 10 µM: 3.5%
[11]
  inhibition at 10 µM: 5%
[12]
  inhibition at 10 µM: 5%
[13]
  inhibition at 10 µM: -0.5%
[14]
  inhibition at 10 µM: 12%
[15]
  inhibition at 10 µM: 3%
[16]
  inhibition at 10 µM: 7%
[17]
  inhibition at 10 µM: 4.5%
[18]
  inhibition at 10 µM: 18.5%
[19]
  inhibition at 10 µM: -3%
[20]
  inhibition at 10 µM: -1%
[21]
  inhibition at 10 µM: -0.5%
[22]
  inhibition at 10 µM: 1%
[23]
  inhibition at 10 µM: 0%
